Experimental data taken from article PMC12818745 (ACS Chemical Neuroscience, 2025).

Tests used:
[1] = biological target: T1, eqBChE (equine serum butyrylcholinesterase) (Equus caballus, UniProt P81908); assay: Cholinesterase inhibition assay (modified Ellman's method), eqBChE; format: biochemical
T1 construct: eqBChE (equine serum butyrylcholinesterase); from tissue; host or cells: equine serum
From the text: Compound series A and B were initially screened for their cholinesterase activity against eeAChE (Electrophorus electricus AChE) and eqBChE (equine serum butyrylcholinesterase), using an adaptation of the Ellman’s method. […]. […] Similarly, replacing the terminal triple bond in 7l with a nitrile group reduced its activity, while replacing the O-propargyl group with an N,N-dipropargyl group in 10 enhanced the inhibition of both enzymes, particularly BChE (Table ). The installation of an additional aryl ring in 7o further improved AChE inhibition, slightly increasing selectivity toward this enzyme. […]. […]. […]. The inhibitory activity of the synthesized compounds toward eeAChE and eqBChE was evaluated spectrophotometrically through a 96-well microplate modified Ellman’s method. The solutions of both enzymes were prepared as 0.025 U/mL in phosphate buffer at pH 7, from stock solutions of 5.05 U/mL and 7.50 U/mL, respectively. The stock solutions for the target compounds (0.1 M) were prepared in dimethyl sulfoxide (DMSO). […] The reaction mixture was prepared with 100 μL of the enzyme (eeAChE or eqBChE) and 50 μL of the test compound (or DMSO/water, not exceeding 0.2% of DMSO in the wells; i.e blank samples). After 5 min of the preincubation period at 37 °C, 50 μL of ATChI or BTChI and 50 μL of DTNB were added to each well, thus initiating the enzymatic reaction. The absorbance values were measured at 415 nm, for a total of 7.5 min, at every 2.5 min, using a microplate reader (Synergy multimode reader; BioTek). […]. All experiments were performed in triplicate.

[2] = biological target: AChE (Electrophorus electricus, UniProt O42275); assay: Kinetic analysis (Lineweaver–Burk), AChE; format: biochemical; conditions: Lineweaver–Burk plots, substrate 50–800 μM
AChE, sequence (O42275 24-633): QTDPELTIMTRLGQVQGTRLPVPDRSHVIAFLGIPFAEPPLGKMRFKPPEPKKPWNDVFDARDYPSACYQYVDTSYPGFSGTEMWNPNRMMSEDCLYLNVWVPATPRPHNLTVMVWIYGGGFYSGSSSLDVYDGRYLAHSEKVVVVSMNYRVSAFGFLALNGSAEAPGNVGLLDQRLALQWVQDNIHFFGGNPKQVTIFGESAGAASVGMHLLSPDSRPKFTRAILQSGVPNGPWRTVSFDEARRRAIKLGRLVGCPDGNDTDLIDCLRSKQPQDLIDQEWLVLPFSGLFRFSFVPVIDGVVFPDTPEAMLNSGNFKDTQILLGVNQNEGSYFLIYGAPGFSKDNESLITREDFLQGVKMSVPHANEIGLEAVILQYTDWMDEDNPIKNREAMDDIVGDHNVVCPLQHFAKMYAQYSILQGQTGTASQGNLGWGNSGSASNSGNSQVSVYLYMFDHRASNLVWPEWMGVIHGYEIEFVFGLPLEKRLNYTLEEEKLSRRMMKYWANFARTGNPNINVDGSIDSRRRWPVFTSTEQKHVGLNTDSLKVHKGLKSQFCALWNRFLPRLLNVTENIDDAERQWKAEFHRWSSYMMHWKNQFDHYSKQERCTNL
Experimental: Based on the computational predictions, derivatives 10 (series A) and 11r (series B) were initially expected to interact with both CAS and PAS of AChE and BChE. However, to better understand the actual mechanism of action of these compounds, kinetic studies were performed (Figure ). […].
[…]. The enzymatic reactions and measurements were performed using the same assay conditions, as described above for the inhibition of both enzymes. All experiments were performed in triplicate. Linear regression analysis was performed with GraphPad Prism 8.0.2 (GraphPad Software Inc.).

[3] = biological target: T2, Aβ42 aggregation (Homo sapiens, UniProt P05067); assay: Thioflavin S assay of Aβ42 aggregation in E. coli cells overexpressing Aβ42; format: cell-based, Escherichia coli; conditions: read-out: Aβ42 inhibition %
T2 construct: expressed in transfected cells; host or cells: E. coli BL21 (DE3), pET vector
T2 sequence (P05067 672-713): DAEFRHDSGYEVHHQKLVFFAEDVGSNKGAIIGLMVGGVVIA
Experimental: The antiaggregating profiles of both series A and B were evaluated using a fluorescence Thioflavin S (ThS) assay in cellulo, which monitors ThS fluorescence in the presence of β-sheet-rich structures, such as Aβ and tau protein aggregates. This method, based on recombinant Escherichia coli (E. coli) bacteria overexpressing insoluble aggregates, offers a simple and cost-effective approach to model aggregation processes in mammalian systems and has been validated for use in drug discovery studies. , Compounds were tested at a screening concentration of 50 μM for their ability to inhibit Aβ42 aggregation. The results, summarized in Table , reveal distinct antiaggregating profiles between series A and B, which are once again influenced by their structural differences.
42 Amino acid Aβ42 was cloned and overexpressed in E. coli BL21 (DE3) competent cells using the pET vector harboring the DNA sequence of Aβ42. Due to the addition of the initiation codon ATG preceding genes, the resulting overexpressed peptide contained an additional methionine residue at its N-terminus. For the preparation of overnight cultures, a colony of BL21 (DE3) cells carrying the plasmid for expression was inoculated in 10 mL of M9 minimal medium supplemented with 50 μg mL^–1 kanamycin at 37 °C. Subsequently, a 1:500 dilution of the overnight culture was added to fresh M9 minimal medium containing 50 μg mL^–1 kanamycin and 25 μM ThS. The bacterial culture was then incubated at 37 °C with agitation at 250 rpm. Upon reaching an OD600 of 0.6, 980 μL of the culture was transferred into 1.5 mL Eppendorf tubes, each containing 10 μL of the compound to be tested dissolved in DMSO and 10 μL of 100 mM isopropyl 1-thio-β-D-galactopyranoside (IPTG) or, alternatively, 10 μL of water for the noninduced controls. The final compound concentration was adjusted to […]. The samples were allowed to grow overnight at 37 °C with agitation at 1400 rpm using a Thermomixer (Eppendorf). Negative controls, representing maximum amyloid presence, utilized free DMSO.
ThS (T1892) and all other chemical reagents were purchased from Sigma (St. Louis, MO). Stock solutions of ThS (250 μM) were prepared using doubly distilled water purified via a Milli-Q system (Millipore). For the fluorescence assay, ThS spectra were recorded utilizing an AmincoBowman series 2 luminescence spectrophotometer (Aminco-Bowman AB2, SLM Aminco, Rochester, NY) within the range of 460 to 600 nm at a temperature of 25 °C. The excitation wavelength employed was 445 nm, with slit widths set at 4 nm. The emission at 485 nm, corresponding to the ThS peak observed in the presence of amyloids, was recorded. To standardize ThS fluorescence relative to bacterial concentration in both in vitro and cell-based assays, the OD600 was determined using a Shimadzu UV-2401 PC UV–vis spectrophotometer. Fluorescence normalization was executed by setting the ThS fluorescence of bacterial cells expressing the peptide or protein in the absence of the drug as 100%, while that of bacterial cells not expressing the peptide or protein was established as 0%.

[4] = tested on: Aβ42 aggregates in SH-SY5Y (SHwt) cells; assay: Confocal microscopy (ThT) of Aβ42 aggregates in SH-SY5Y cells expressing APP695; conditions: 25 μM compound with Aβ42 10 μM, 48 h
Experimental: A stock solution of Aβ42 (GenScript) was prepared in DMSO to a concentration of 2000 μM. SH-SY5Y cells stably expressing wild-type APP695 (SHwt) were used. The cells were cultured in Dulbecco’s Modified Eagle Medium (DMEM, Gibco), supplemented with 10% of Fetal Bovine Serum (FBS, Sigma-Aldrich), and 2% of Pen-Strep-Glut (Gibco). […] 2.0 × 10^4 SH-WT cells were plated in 24-well plates and incubated for 24 h, in 12 ømm glass coverslips. […] Cells incubated with Aβ42 and 1% DMSO were used as the positive control. After this period, the medium was changed to fresh DMEM medium without FBS, and the cells were incubated for another 24 h. After the incubation period, cells were washed with PBS, fixed in 4% formaldehyde for 30 min, permeabilized with 0.2% Triton X-100 in PBS for 10 min and blocked with 1% BSA for 10 min. […] Cells were washed three times between each step. Coverslips with cells were mounted with CitiFluor MWL4–88 (Electron Microscopy Sciences).

T1 sequence (P81908 whole entry): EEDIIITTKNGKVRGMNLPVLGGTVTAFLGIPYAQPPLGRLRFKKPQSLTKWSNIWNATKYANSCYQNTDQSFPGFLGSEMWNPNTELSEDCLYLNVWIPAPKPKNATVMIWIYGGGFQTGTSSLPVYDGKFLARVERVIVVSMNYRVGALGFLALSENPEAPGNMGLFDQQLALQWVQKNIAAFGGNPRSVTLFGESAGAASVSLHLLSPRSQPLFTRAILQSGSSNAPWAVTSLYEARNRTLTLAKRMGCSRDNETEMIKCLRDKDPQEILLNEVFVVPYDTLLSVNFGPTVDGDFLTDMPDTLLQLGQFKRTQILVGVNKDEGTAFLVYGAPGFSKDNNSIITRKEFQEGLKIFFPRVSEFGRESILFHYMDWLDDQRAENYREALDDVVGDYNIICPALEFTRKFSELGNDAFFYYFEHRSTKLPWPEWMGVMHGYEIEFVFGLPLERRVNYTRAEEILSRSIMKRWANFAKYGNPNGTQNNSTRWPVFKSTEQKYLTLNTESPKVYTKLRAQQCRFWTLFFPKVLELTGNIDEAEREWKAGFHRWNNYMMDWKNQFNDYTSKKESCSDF

| SMILES | IC50 [1] [µM] | Type of inhibition, AChE [2] | inhibition at 50 µM [3] [%] | Reduction in intracellular Aβ42 aggregates (ThT fluorescence) [4] |
| --- | --- | --- | --- | --- |
| C#CCN(CC#C)c1ccccc1/C=C/c1cc(=O)c2ccccc2o1 [Compound 10, (E)-2-{2-[Di(prop-2-yn-1-yl)amino]styryl}-4H-chromen-4-one] | 5.9 ± 0.4 | reversible competitive inhibition | 36 ± 18.3 | – |
| COc1ccc2c(=O)c3cc4c(cc3oc2c1)-c1cc(Cl)ccc1OC4 [Compound 11r, 2-Chloro-11-methoxy-6H,8H-chromeno[3,4-b]xanthen-8-one] | 6.3 ± 0.6 | reversible competitive inhibition | 57 ± 5.7 | approximately 70% |
